Data taken from patent publication US11834460B2, “Imide-based modulators of proteolysis and associated methods of use” (YALE UNIVERSITY, priority 2018, dated 2023).

The molecules below were run on c-Myc (assay: c-Myc ELISA assay protocol in 22RV-1 cells). Conditions: 18 h, read-out: cMyc IC50.
Format: cell-based, human
Description: In each bioassay, cells were treated with varying amounts of compounds encompassed by the present disclosure, as shown in Table 1. The degradation of the following proteins were evaluated in this study: TANK-binding kinase 1 (TBK1), estrogen receptor α (ERα), bromodomain-containing protein 4 (BRD4), androgen receptor (AR), and c-Myc.
5. c-Myc ELISA Assay Protocol
22RV-1 cells were purchased from ATCC and cultured in RPMI+10% FBS media. Cells were harvested using trypsin (Gibco #25200-114), counted and seeded at 30,000 cells/well at a volume of 75 μL/well in RPMI +10% FBS media in 96-well plates. The cells were dosed with compounds diluted in 0.1% DMSO, incubated for 18 h then washed and lysed in 50 uL RIPA buffer (50 mM Tris pH8, 150 mM NaCl, 1% Tx-100, 0.1% SDS, 0.5% sodium deoxycholate) supplemented with protease and phosphatase inhibitors. The lysates were clarified at 4000 rpm at 4° C. for 10 minutes then aliquots were added into a 96-well ELISA plate of Novex Human c-myc ELISA kit from Life Technologies Catalog #KHO2041. 50 ul of c-Myc Detection antibody was added into every well, the plates incubated at room temperature for 3 hrs, then washed with ELISA wash buffer. 100 uL of the anti-rabbit IgG-HRP secondary antibody was added to each well and incubated at room temperature for 30 minutes. The plates were washed with ELISA wash buffer, 100 μL TMB added to each well, and then monitored every 5 minutes for a color change. 100 μL of stop solution is added and the plates read at 450 nm.

| IC50 [nM] | SMILES |
| --- | --- |
| > 50 | Cc1sc2c(c1C)C(c1ccc(Cl)cc1)=N[C@@H](CC(=O)N[C@H]1CCN(C(=O)c3ccc(OCCNc4cccc5c4CN(C4CCC(=O)NC4=O)C5=O)cc3)C1)c1nnc(C)n1-2 (stereo partly drawn) [Compound 59, 2-[(9S)-7-(4-chlorophenyl)-4,5,13-trimethyl-3-thia-1,8,11,12-tetraazatricyclo [8.3.0.0^2,^6]trideca-2(6),4,7,10,12-pentaen-9-yl]-N-[(3S)-1-[4-(2-{[2-(2,6-dioxopiperidin-3-yl)-1-oxo-2,3-dihydro-1H-isoindol-4-yl]amino}ethoxy)benzoyl]pyrrolidin-3-yl]acetamide] |
| < 50 | Cc1sc2c(c1C)C(c1ccc(Cl)cc1)=N[C@@H](CC(=O)N[C@H](C)c1ccc(OCCCCNc3cccc4c3C(=O)N(C3CCC(=O)NC3=O)C4=O)cc1)c1nnc(C)n1-2 (stereo partly shown) [Compound 28] |
| < 50 | Cc1sc2c(c1C)C(c1ccc(Cl)cc1)=N[C@@H](CC(=O)Nc1ccc(OCCOCCOCCNc3cccc4nc(C)n(C5CCC(=O)NC5=O)c(=O)c34)cc1)c1nnc(C)n1-2 (stereo partly drawn) [Compound 56, 2-[(9S)-7-(4-chlorophenyl)-4,5,13-trimethyl-3-thia-1,8,11,12-tetraazatricyclo [8.3.0.0^2,^6]trideca-2(6),4,7,10,12-pentaen-9-yl]-N-(4-{2-[2-(2-{[3-(2,6-dioxopiperidin-3-yl)-2-methyl-4-oxo-3,4-dihydroquinazolin-5-yl]amino}ethoxy)ethoxy]ethoxy}phenyl)acetamide] |
| < 50 | Cc1sc2c(c1C)C(c1ccc(Cl)cc1)=N[C@@H](CC(=O)NCCOCCNc1cccc3c1C(=O)N(C1CCC(=O)NC1=O)C3=O)c1nnc(C)n1-2 (stereo partly drawn) [Compound 27, 2-((9S)-7-(4-chlorophenyl)-4,5,13-trimethyl-3-thia-1,8,11,12-tetraazatricyclo [8.3.0.02,6]trideca-2(6),4,7,10,12-pentaen-9-yl)-N-(2-(2-((2-(2,6-dioxopiperidin-3-yl)-1,3-dioxo-2,3-dihydro-1H-isoindol-4-yl)amino)ethoxy)ethyl)acetamide] |
| < 50 | Cc1sc2c(c1C)C(c1ccc(Cl)cc1)=N[C@@H](CC(=O)Nc1cnc(-c3ccc(OCCCNc4cccc5c4C(=O)N(C4CCC(=O)NC4=O)C5=O)cc3)nc1)c1nnc(C)n1-2 (stereo partly drawn) [Compound 31, 2-((9S)-7-(4-chlorophenyl)-4,5,13-trimethyl-3-thia-1,8,11,12-tetraazatricyclo [8.3.0.02,6]trideca-2(6),4,7,10, 12-pentaen-9-yl)-N-(2-(4-(3-((2-(2,6-dioxopiperidin-3-yl)-1,3-dioxo-2,3-dihydro-1H-isoindol-4-yl)amino)propoxy)phenyl)pyrimidin-5-yl)acetamide] |
| < 50 | Cc1sc2c(c1C)C(c1ccc(Cl)cc1)=N[C@@H](CC(=O)N[C@H](C)c1ccc(OCCOCCNc3cccc4c3CN(C3CCC(=O)NC3=O)C4=O)cc1)c1nnc(C)n1-2 (stereo partly shown) [Compound 38] |
| > 50 | Cc1sc2c(c1C)C(c1ccc(Cl)cc1)=N[C@@H](CC(=O)N[C@H](C)c1cccc(OCCCNc3cccc4c3CN(C3CCC(=O)NC3=O)C4=O)c1)c1nnc(C)n1-2 (stereo partly drawn) [Compound 51, 2-[(9S)-7-(4-chlorophenyl)-4,5,13-trimethyl-3-thia-1,8,11,12-tetraazatricyclo [8.3.0.0^2,^6]trideca-2(6),4,7,10,12-pentaen-9-yl]-N-[(1R)-1-[3-(3-{[2-(2,6-dioxopiperidin-3-yl)-1-oxo-2,3-dihydro-1H-isoindol-4-yl]amino}propoxy)phenyl]ethyl] acetamide] |
| < 50 | Cc1sc2c(c1C)C(c1ccc(Cl)cc1)=N[C@@H](CC(=O)N[C@@H](C)c1ccc(-c3ncc(OCCOCCNc4cccc5c4C(=O)N(C4CCC(=O)NC4=O)C5=O)cn3)cc1)c1nnc(C)n1-2 (stereo partly drawn) [Compound 36, 2-[(9S)-7-(4-chlorophenyl)-4,5,13-trimethyl-3-thia-1,8,11,12-tetraazatricyclo [8.3.0.0^2,^6]trideca-2(6),4,7,10,12-pentaen-9-yl]-N-[(1S)-1-(4-{5-[2-(2-{[2-(2,6-dioxopiperidin-3-yl)-1,3-dioxo-2,3-dihydro-1H-isoindol-4-yl]amino}ethoxy)ethoxy]pyrimidin-2-yl}phenyl)ethyl] acetamide] |
| > 50 | Cc1sc2c(c1C)C(c1ccc(Cl)cc1)=N[C@@H](CC(=O)NCCOCCNc1cccc3nc(C)n(C4CCC(=O)NC4=O)c(=O)c13)c1nnc(C)n1-2 (stereo partly drawn) [Compound 53, 2-[(9S)-7-(4-chlorophenyl)-4,5,13-trimethyl-3-thia-1,8,11,12-tetraazatricyclo [8.3.0.0^2,^6]trideca-2(6),4,7,10,12-pentaen-9-yl]-N-[2-(2-{[3-(2,6-dioxopiperidin-3-yl)-2-methyl-4-oxo-3,4-dihydroquinazolin-5-yl]amino}ethoxy)ethyl]acetamide] |
| < 50 | Cc1sc2c(c1C)C(c1ccc(Cl)cc1)=N[C@@H](CC(=O)NCCOCCOCCNc1cccc3c1C(=O)N(C1CCC(=O)NC1=O)C3=O)c1nnc(C)n1-2 (stereo partly drawn) [Compound 37, 2-[(9S)-7-(4-chlorophenyl)-4,5,13-trimethyl-3-thia-1,8,11,12-tetraazatricyclo [8.3.0.0^2,^6]trideca-2(6),4,7,10,12-pentaen-9-yl]-N-{2-[2-(2-{[2-(2,6-dioxopiperidin-3-yl)-1,3-dioxo-2,3-dihydro-1H-isoindol-4-yl]amino}ethoxy)ethoxy]ethyl} acetamide] |
| > 50 | Cc1sc2c(c1C)C(c1ccc(Cl)cc1)=N[C@@H](CC(=O)NCCCCNc1cccc3c1C(=O)N(C1CCC(=O)NC1=O)C3=O)c1nnc(C)n1-2 (stereo partly drawn) [Compound 43, 2-[(9S)-7-(4-chlorophenyl)-4,5,13-trimethyl-3-thia-1,8,11,12-tetraazatricyclo [8.3.0.0^2,^6]trideca-2(6),4,7,10,12-pentaen-9-yl]-N-(4-{[2-(2,6-dioxopiperidin-3-yl)-1,3-dioxo-2,3-dihydro-1H-isoindol-4-yl]amino}butyl) acetamide] |
| < 50 | Cc1sc2c(c1C)C(c1ccc(Cl)cc1)=N[C@@H](CC(=O)N[C@@H](C)c1ccc(OCCOCCNc3cccc4c3C(=O)N(C3CCC(=O)NC3=O)C4=O)c(F)c1)c1nnc(C)n1-2 (stereo partly drawn) [Compound 48, 2-[(9S)-7-(4-chlorophenyl)-4,5,13-trimethyl-3-thia-1,8,11,12-tetraazatricyclo [8.3.0.0^2,^6]trideca-2(6),4,7,10,12-pentaen-9-yl]-N-[(1S)-1-{4-[2-(2-{[2-(2,6-dioxopiperidin-3-yl)-1,3-dioxo-2,3-dihydro-1H-isoindol-4-yl]amino}ethoxy)ethoxy]-3-fluorophenyl}ethyl]acetamide] |
| < 50 | Cc1sc2c(c1C)C(c1ccc(Cl)cc1)=N[C@@H](CC(=O)N[C@H](C)c1ccc(OCCCNc3cccc4c3C(=O)N(C3CCC(=O)NC3=O)C4=O)cc1)c1nnc(C)n1-2 (stereo partly drawn) [Compound 30, 2-((9S)-7-(4-chlorophenyl)-4,5,13-trimethyl-3-thia-1,8,11,12-tetraazatricyclo [8.3.0.02,6]trideca-2(6),4,7,10, 12-pentaen-9-yl)-N-((1R)-1-(4-(3-((2-(2,6-dioxopiperidin-3-yl)-1,3-dioxo-2,3-dihydro-1H-isoindol-4-yl)amino)propoxy)phenyl)ethyl) acetamide] |

| SMILES | IC50 [nM] |
| --- | --- |
| Cc1sc2c(c1C)C(c1ccc(Cl)cc1)=N[C@@H](CC(=O)Nc1ccc(OCCCCOCCCNc3cccc4c3C(=O)N(C3CCC(=O)NC3=O)C4=O)cc1F)c1nnc(C)n1-2 (stereo partly drawn) [Compound 33, 2-((9S)-7-(4-chlorophenyl)-4,5,13-trimethyl-3-thia-1,8,11,12-tetraazatricyclo [8.3.0.02,6]trideca-2(6),4,7,10, 12-pentaen-9-yl)-n-(4-(4-(3-((2-(2,6-dioxopiperidin-3-yl)-1,3-dioxo-2,3-dihydro-1h-isoindol-4-yl)amino)propoxy)butoxy)-2-fluorophenyl) acetamide] | < 50 |
| Cc1sc2c(c1C)C(c1ccc(Cl)cc1)=N[C@@H](CC(=O)N[C@@H](C)c1ccc(OCCCCNc3cccc4c3C(=O)N(C3CCC(=O)NC3=O)C4=O)cc1)c1nnc(C)n1-2 (stereo partly drawn) [Compound 23, 2-((9S)-7-(4-chlorophenyl)-4,5,13-trimethyl-3-thia-1,8,11,12-tetraazatricyclo [8.3.0.02,6]trideca-2(6),4,7,10, 12-pentaen-9-yl)-N-((1S)-1-(4-(4-((2-(2,6-dioxopiperidin-3-yl)-1,3-dioxo-2,3-dihydro-1H-isoindol-4-yl)amino)butoxy)phenyl)ethyl) acetamide] | > 50 |
| Cc1sc2c(c1C)C(c1ccc(Cl)cc1)=N[C@@H](CC(=O)Nc1ccc(OCCCCOCCCNc3cccc4c3C(=O)N(C3CCC(=O)NC3=O)C4=O)c(F)c1)c1nnc(C)n1-2 (stereo partly drawn) [Compound 34, 2-((9S)-7-(4-chlorophenyl)-4,5,13-trimethyl-3-thia-1,8,11,12-tetraazatricyclo [8.3.0.02,6]trideca-2(6),4,7,10, 12-pentaen-9-yl)-N-(4-(4-(3-((2-(2,6-dioxopiperidin-3-yl)-1,3-dioxo-2,3-dihydro-1H-isoindol-4-yl)amino)propoxy)butoxy)-3-fluorphenyl) acetamide] | < 50 |
